US6465614B1, “High-affinity response-selective C-terminal analogs of C5a anaphylatoxin” (priority 1994, dated 2002)
Read-outs that look alike come from different tables or passages of the source. Ends that are not written are not given here.

Experiments:
guinea-pig platelets = assay: Guinea-pig platelet aggregation assay; type: cell-based; details: for Platelet Aggreg (threshold concentration producing visible platelet aggregation): guinea-pig platelets, threshold response
Procedure: This assay was performed on platelets obtained from the arterial blood of anesthetized male Hartley guinea pigs according to previously published methods (Ember et al., 1992, supra). Briefly, platelet-rich plasma was prepared and diluted to 3×10^8 platelets/ml in 0.39% sodium citrate solution. Peptide samples were diluted in a stepwise fashion in 1.5-fold dilutions and placed in 96-well microplates. A […] peptide sample, […] of platelet-rich plasma, and one 3 mm glass bead were placed in each well. The plates were shaken horizontally at 100 rpm for 5 min at 37° C. Platelet aggregation was evaluated visually in an inverted microscope at 40× magnification. The greatest dilution of peptide producing visible aggregation was scored as the threshold concentration for activity. Natural C5a and C3a were included as internal standards. At least three independent duplicate determinations were conducted for every peptide.

human neutrophils (PMN) [1] = target: T1, human neutrophils (PMN) (Homo sapiens, UniProt P21730); type: cell-based; details: human neutrophils; read-out: PMN Polarization EC50
T1 sequence (P21730 1-350): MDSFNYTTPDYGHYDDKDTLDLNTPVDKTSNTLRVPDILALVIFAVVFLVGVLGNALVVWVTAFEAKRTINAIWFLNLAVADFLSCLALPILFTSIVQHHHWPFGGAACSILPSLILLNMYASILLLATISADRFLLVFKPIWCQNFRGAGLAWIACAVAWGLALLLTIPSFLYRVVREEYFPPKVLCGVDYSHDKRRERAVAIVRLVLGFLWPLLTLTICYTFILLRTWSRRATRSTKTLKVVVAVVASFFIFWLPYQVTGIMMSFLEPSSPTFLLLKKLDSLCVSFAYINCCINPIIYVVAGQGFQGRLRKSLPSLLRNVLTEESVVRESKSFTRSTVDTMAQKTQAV
Procedure: Neutrophil polarization assays were conducted as described by Ember et al., 1992, supra. Human neutrophils (PMN) were prepared according to the procedure described by Dahinden et al. (1979), J. Immunol., 130: 857-862. The assay for measuring the effect of C5a analogs on PMN polarization was described by Haston & Shields (1985), J. Immunol. Methods, 81: 229-237. Briefly, PMN (1×10^6 cells/ml) were suspended in 10 mM 3- (N-morpholino) propane sulfonic acid (Sigma Chemical Co.) containing EBSS. […] After 10 minutes of incubation at room temperature, the cells were washed twice and stored until microscopic examination. Cells deviating from the typical spherical shape were visually scored as polarized. Results are expressed as percent of polarized cells per total cells counted (300 cells counted/sample).

serum carboxypeptidases = assay: Stability toward serum carboxypeptidases (incubation in normal human serum, HPLC); type: in vitro ADME; details: 37° C., 1 h
Procedure: FIG. 10. HPLC profiles of decapeptide analogs. FIG. 10A: HPLC of […] (peptide/Sequence I.D. No. 2); a=purified peptide; b=des-Arg peptide ([…]; Sequence I.D. No. 24); c=des-Arg peptide in saline, no incubation; d=des-Arg peptide in saline with incubation for 1 h at 37° C.; e=des-Arg peptide in normal human serum with incubation for 1 h at 37° C. FIG. 10B: HPLC of […]aR (Sequence I.D. No. 10); a=purified peptide; b=peptide in saline, no incubation; c=peptide in saline with incubation for 1 h at 37° C.; d=peptide in normal human serum with incubation for 1 h at 37° C. Solvent system 1: 70 mM triethylamine/phosphoric acid buffer, pH-2.3. Solvent system 2: 60% acetonitrile in the Solvent 1 buffer. Linear gradient of 30-50% solvent 2 at.1%/min, slope=1 ml/min, absorbance monitored at 214 nm.
Both peptides were incubated in normal human serum at 37° C. for 1 h and thereafter reanalyzed on HPLC.

human fetal artery = target: T2, human fetal artery (Homo sapiens, UniProt P21730); assay: Smooth muscle contraction of human fetal artery (spasmogenic assay); type: cell-based; details: for log potency ratio at the EC50 level compared to C5a / % of C5a potency: fetal artery; for % of C5a potency: from log potency ratio at EC50 level
T2 sequence (P21730 1-350): T1 sequence (P21730 1-350)
Procedure: (§1) Tissue strips were suspended in 2 ml organ baths, containing physiological salt solution (Krebs-Ringers solution: 118 mM NaCl, 4.7 mM KCl, 2.5 mM CaCl2, 25 mM NaHCO3, 1.2 mM KH2PO4, 1.2 mM MgSO4, 10 mM Glucose) maintained at 37° C., pH 7.4 and continuously aerated with a 95% CO2 mixture. Each tissue preparation was equilibrated for 1 hr prior to testing with peptides. All drugs were kept on ice during the procedure and isometric tensions were measured using strain-gauge transducers (Grass FT-03) with a computerized chart recording system (MacLab/8). After the contraction to each peptide reached a plateau, histamine (10 μM) was added to obtain the maximum tissue response. Because tachyphylaxis occurs rapidly to single doses of C5a or peptides, cumulative dose-response curves could not be obtained. Instead, the dose-response profile was compiled from multiple strips from each tissue. After exposing each strip to a single concentration of the peptide followed by supramaximal histamine, the response was expressed as a percentage of the maximal contraction to histamine. Full dose-response curves for C5a (human recombinant C5a; Sigma) or individual peptides were performed in each experiment for each tissue and the EC50 values (i.e., concentration of peptide producing 50t of the maximal response to each peptide) obtained by probit analysis. pD2 transforms [−log EC50 (M)] were calculated for each dose-response curve, and means ±SE obtained for each peptide.
Human umbilical cords were obtained from the Mater Misericordiae Hospital, South Brisbane, Queensland within minutes of delivery. The mid-section of the umbilical cord was cut from the placenta, placed in physiological salt solution and stored at 5° C. for up to 24 hrs. […] The fetal arteries were dissected out and cut into longitudinal strips. The intimal surface of the arteries was rubbed with a cotton bud to remove the endothelium. Strips approximately 2 cm×3 mm were suspended in organ baths under 20 mN of resting tension. Arterial strips were tested repeatedly with peptides following a 60 min drug-free period of rest between assays (Taylor et al. (1994), Inflammation, in press).

human neutrophils (PMN) [2] = target: T1, human neutrophils (PMN); type: cell-based; details: human neutrophils, β-glucuronidase release; read-out: PMN Enzyme Release EC50
Procedure: The release of glucuronidase from human neutrophils was determined as described by Schroder et al. (1987), J. Immunol., 139: 3474-3483. Briefly, human neutrophils were pretreated with cytochalasin B (5 μg/ml, 10 min, 37° C.). The cells (10^6) were incubated in the presence of stimulants for 60 minutes at 37° C. in a final volume of 200 μl and then centrifuged. The supernatant was collected and 50 μl were incubated with 50 μl of 0.01 M P-nitrophenyl-β-D-glucuronide (in 0.1 M sodium acetate at pH 4 for 18 h) as triplicate determinations in 96-well microtiter plates (Corning). The reaction was stopped by addition of 100 μl of 0.4 M gly buffer at pH 10. The reaction developed color that was read at 405 nm in a Titertec Multiscan (MCC/340) ELISA reader. The β-glucuronidase released was expressed as the percentage of total enzyme in the cell that could be released by addition of 0.2% Triton X-100 (Pierce).

[3] = test system: guinea-pig lung parenchyma; assay: Smooth muscle contraction of guinea-pig lung parenchyma; type: cell-based; details: arithmetic mean
Procedure: as §1, with “Each” for “Tissue strips were suspended in 2 ml organ baths, containing physiological salt solution (Krebs-Ringers solution: 118 mM NaCl, 4.7 mM KCl, 2.5 mM CaCl2, 25 mM NaHCO3, 1.2 mM KH2PO4, 1.2 mM MgSO4, 10 mM Glucose) maintained at 37° C., pH 7.4 and continuously aerated with a 95% CO2 mixture. Each”

Compound	Platelet Aggreg (threshold concentration producing visible platelet aggregation) (guinea-pig platelets)	potency relative to peptide 2 in platelet aggregation (guinea-pig platelets; more potent than peptide 2)	EC50 (human neutrophils (PMN) [1])	cleavage of the C-terminal Arg (serum carboxypeptidases)	log potency ratio at the EC50 level compared to C5a (human fetal artery)	% of C5a potency (human fetal artery)	potency relative to peptide 2 in spasmogenic activity (human fetal artery; more potent than peptide 2)	EC50 (human neutrophils (PMN) [2])	EC50 [3]	potency relative to the C-terminal 19-mer of natural sequence (human fetal artery; smooth muscle contraction of human fetal artery (FIG. 1))
CSCC[C@H](NC(=O)[C@H](CC(=O)O)NC(=O)[C@H](CCCCN)NC(=O)[C@H](Cc1ccccc1)NC(=O)[C@H](CO)NC(=O)[C@@H](N)Cc1ccc(O)cc1)C(=O)N1CCC[C@H]1C(=O)N[C@@H](CC(C)C)C(=O)N[C@H](C)C(=O)N[C@@H](CCCNC(=N)N)C(=O)O [peptide 10]	1.3 µM	about 18 fold	2.1 µM	none	1.42±0.13	4%	about 32 fold	57.7 µM	–	–
YSFKDMQLGR-OH [peptide 2]	22.9 µM	–	4 µM	–	2.78±0.10	0.2%	–	50 µM	28.4 µM	about 20 times
